Results taken from ChEMBL document CHEMBL1649124, “Genetic variability among ampC genes from acinetobacter genomic species 3” (Antimicrob Agents Chemother, 2009).

Key:
Acinetobacter pittii [1] = experiment: Ratio of MIC for Acinetobacter genomosp. 3 isolate 103 to MIC for Acinetobacter genomosp. 3 isolate 103 in presence of efflux pump inhibitor CCCP; assay type: functional
Acinetobacter pittii [2] = experiment: Ratio of MIC for Acinetobacter genomosp. 3 isolate 103 to MIC for Acinetobacter genomosp. 3 isolate 103 in presence of efflux pump inhibitor PAN; assay type: functional

C[C@@H](O)[C@H]1C(=O)N2C(C(=O)O)=C(S[C@@H]3CN[C@H](C(=O)N(C)C)C3)[C@H](C)[C@H]12 [MEROPENEM]
Ratio (Acinetobacter pittii [1]): 3
Ratio (Acinetobacter pittii [2]): 4
